Each compound was assayed on HIV-1 laboratory strain, NL4-3 (assay: MT-4 cytoprotection assay (WST-1 readout)). Details: Human immunodeficiency virus 1, NL43, MT4, 96 h; MT-4 cells infected with HIV-1 NL4-3, MOI 0.0005, four days incubation; read-out: EC50, antiviral activity in the MT4 assay (most active compounds).
Type: cell-based
Protocol: The compounds of the invention can be tested in the following MT-4 assay to detect antiviral activity.
The HTLV-1 transformed T cell line, MT-4, is highly susceptible to HIV-1 infection. Anti-HIV-1 agents were evaluated in this target cell line by protection from the HIV-induced cytopathic effect. In this assay, viability of both HIV-1 and mock-infected cells was assessed in a colorimetric assay that monitors the ability of metabolically-active cells to reduce the tetrazolium salt WST-1. Cytoprotection by antiviral compounds is indicated by the positive readout of increased WST-1 cleavage.
Briefly, exponentially growing MT-4 cells were mock-infected or batch-infected with the HIV-1 laboratory strain, NL4-3, at a multiplicity of infection of 0.0005. Following a two hour infection, the cells were washed to remove unbound virus and plated in the presence of increasing concentrations of compound. After four days incubation, cytoprotection in the infected cells and compound toxicity in mock-infected cells were analyzed using the WST-1 assay.

Q: For `C=C(C)[C@@H]1CC[C@]2(C#Cc3ccccc3C(=O)O)CC[C@]3(C)C(CCC4[C@@]5(C)CC[C@H](OC(=O)CC(C)(C)C(=O)O)C(C)(C)C5CC[C@]43C)C12` (stereo partly drawn) [Compound 6, 2,2-Dimethyl-succinic acid 4-[(1R,5aR,5bR,9S,11aR)-3a-(2-carboxy-phenylethynyl)-1-isopropenyl-5a,5b,8,8,11a-pentamethyl-icosahydro-cyclopenta[a]chrysen-9-yl]ester], which EC50 is on record?
A: The EC50 was no more than 100 nM.

Q: Which EC50 does the source give for `C=C(C)[C@@H]1CC[C@]2(C#Cc3sccc3C(=O)O)CC[C@]3(C)C(CCC4[C@@]5(C)CC[C@H](OC(=O)CC(C)(C)C(=O)O)C(C)(C)C5CC[C@]43C)C12` (some centres unmarked) [Compound 9] here?
A: Its EC50 is no more than 100 nM.

Q: For `C=C(C)[C@@H]1CC[C@]2(C#Cc3ccsc3C(=O)O)CC[C@]3(C)C(CCC4[C@@]5(C)CC[C@H](OC(=O)CC(C)(C)C(=O)O)C(C)(C)C5CC[C@]43C)C12` (some centres unmarked) [Compound 11], which EC50 is on record?
A: The EC50 was no more than 100 nM.

Q: `C=C(C)[C@@H]1CC[C@]2(C#Cc3cc(F)ccc3C(=O)O)CC[C@]3(C)C(CCC4[C@@]5(C)CC[C@H](OC(=O)CC(C)(C)C(=O)O)C(C)(C)C5CC[C@]43C)C12` (some centres unmarked) [Compound 13] was tested. Which EC50 did it give?
A: Its EC50 is no more than 100 nM.

Q: `C=C(C)[C@@H]1CC[C@]2(C#Cc3ccsc3-c3nnn[nH]3)CC[C@]3(C)C(CCC4[C@@]5(C)CC[C@H](OC(=O)CC(C)(C)C(=O)O)C(C)(C)C5CC[C@]43C)C12` (some centres unmarked) [Compound 18] was tested. Which EC50 did it give?
A: The EC50 was no more than 100 nM.

Q: Which EC50 does the source give for `C=C(C)[C@@H]1CC[C@]2(C#Cc3cccc(F)c3C(=O)O)CC[C@]3(C)C(CCC4[C@@]5(C)CC[C@H](OC(=O)CC(C)(C)C(=O)O)C(C)(C)C5CC[C@]43C)C12` (some centres unmarked) [Compound 20] here?
A: The EC50 was no more than 100 nM.

Q: Which EC50 does the source give for `C=C(C)[C@@H]1CC[C@]2(C#Cc3ccc(F)cc3C(=O)O)CC[C@]3(C)C(CCC4[C@@]5(C)CC[C@H](OC(=O)CC(C)(C)C(=O)O)C(C)(C)C5CC[C@]43C)C12` (some centres unmarked) [Compound 21] here?
A: Its EC50 is no more than 100 nM.

Q: `C=C(C)[C@@H]1CC[C@]2(C#Cc3c(C)cccc3C(=O)O)CC[C@]3(C)C(CCC4[C@@]5(C)CC[C@H](OC(=O)CC(C)(C)C(=O)O)C(C)(C)C5CC[C@]43C)C12` (some centres unmarked) [Compound 22] was tested. Which EC50 did it give?
A: Its EC50 is no more than 100 nM.

Q: With `C=C(C)[C@@H]1CC[C@]2(C#Cc3ccccc3C(N)=O)CC[C@]3(C)C(CCC4[C@@]5(C)CC[C@H](OC(=O)CC(C)(C)C(=O)O)C(C)(C)C5CC[C@]43C)C12` (some centres unmarked) [Compound 27] as the compound, how does the EC50 read?
A: Its EC50 is no more than 100 nM.

Q: With `C=C(C)[C@@H]1CC[C@]2(CCc3ccccc3C(=O)O)CC[C@]3(C)C(CCC4[C@@]5(C)CC[C@H](OC(=O)CC(C)(C)C(=O)O)C(C)(C)C5CC[C@]43C)C12` (some centres unmarked) [Compound 28] as the compound, how does the EC50 read?
A: The EC50 was no more than 100 nM.

Q: `C=C(C)[C@@H]1CC[C@]2(C#Cc3ccccc3C(=O)N(C)C)CC[C@]3(C)C(CCC4[C@@]5(C)CC[C@H](OC(=O)CC(C)(C)C(=O)O)C(C)(C)C5CC[C@]43C)C12` (some centres unmarked) [Compound 30] was tested. Which EC50 did it give?
A: Its EC50 is no more than 100 nM.

Q: For `C=C(C)[C@@H]1CC[C@]2(C#Cc3ccccc3S(C)(=O)=O)CC[C@]3(C)C(CCC4[C@@]5(C)CC[C@H](OC(=O)CC(C)(C)C(=O)O)C(C)(C)C5CC[C@]43C)C12` (some centres unmarked) [Compound 32], which EC50 is on record?
A: Its EC50 is no more than 100 nM.

Q: `C=C(C)[C@@H]1CC[C@]2(C#Cc3cc(Cl)ccc3C(=O)O)CC[C@]3(C)C(CCC4[C@@]5(C)CC[C@H](OC(=O)CC(C)(C)C(=O)O)C(C)(C)C5CC[C@]43C)C12` (some centres unmarked) [Compound 34] was tested. Which EC50 did it give?
A: Its EC50 is no more than 100 nM.

Q: For `C=C(C)[C@@H]1CC[C@]2(C#Cc3ccc(Cl)cc3C(=O)O)CC[C@]3(C)C(CCC4[C@@]5(C)CCC(OC(=O)CC(C)(C)C(=O)O)C(C)(C)C5CC[C@]43C)C12` (some centres unmarked) [Compound 35], which EC50 is on record?
A: The EC50 was no more than 100 nM.

Q: `C=C(C)[C@@H]1CC[C@]2(C#Cc3cc(C)ccc3C(=O)O)CC[C@]3(C)C(CCC4[C@@]5(C)CC[C@H](OC(=O)CC(C)(C)C(=O)O)C(C)(C)C5CC[C@]43C)C12` (some centres unmarked) [Compound 36] was tested. Which EC50 did it give?
A: The EC50 was no more than 100 nM.

Q: `C=C(C)[C@@H]1CC[C@]2(C#CC3=C(C(=O)O)CCC3)CC[C@]3(C)C(CCC4[C@@]5(C)CC[C@H](OC(=O)CC(C)(C)C(=O)O)C(C)(C)C5CC[C@]43C)C12` (some centres unmarked) [Compound 41] was tested. Which EC50 did it give?
A: The EC50 was no more than 100 nM.

Q: With `C=C(C)[C@@H]1CC[C@]2(C#CC3=C(C(=O)O)CN(C(=O)OC(C)(C)C)CC3)CC[C@]3(C)C(CCC4[C@@]5(C)CC[C@H](OC(=O)CC(C)(C)C(=O)O)C(C)(C)C5CC[C@]43C)C12` (some centres unmarked) [Compound 42] as the compound, how does the EC50 read?
A: Its EC50 is no more than 100 nM.

Q: With `C=C(C)[C@@H]1CC[C@]2(C#CC3=C(C(=O)O)CNCC3)CC[C@]3(C)C(CCC4[C@@]5(C)CC[C@H](OC(=O)CC(C)(C)C(=O)O)C(C)(C)C5CC[C@]43C)C12` (some centres unmarked) [Compound 43] as the compound, how does the EC50 read?
A: Its EC50 is no more than 100 nM.

Q: `C=C(C)[C@@H]1CC[C@]2(C#CC3=C(C(=O)O)CCCC3)CC[C@]3(C)C(CCC4[C@@]5(C)CC[C@H](OC(=O)CC(C)(C)C(=O)O)C(C)(C)C5CC[C@]43C)C12` (some centres unmarked) [Compound 45] was tested. Which EC50 did it give?
A: The EC50 was no more than 100 nM.

Q: `C=C(C)[C@@H]1CC[C@]2(C#Cc3ccc(OC)c(OC)c3C(=O)O)CC[C@]3(C)C(CCC4[C@@]5(C)CC[C@H](OC(=O)CC(C)(C)C(=O)O)C(C)(C)C5CC[C@]43C)C12` (some centres unmarked) [Compound 50] was tested. Which EC50 did it give?
A: Its EC50 is no more than 100 nM.

Q: `C=C(C)[C@@H]1CC[C@]2(C#Cc3cccc(Cl)c3C(=O)O)CC[C@]3(C)C(CCC4[C@@]5(C)CC[C@H](OC(=O)CC(C)(C)C(=O)O)C(C)(C)C5CC[C@]43C)C12` (some centres unmarked) [Compound 51] was tested. Which EC50 did it give?
A: Its EC50 is no more than 100 nM.

Q: `C=C(C)[C@@H]1CC[C@]2(C#Cc3ccncc3C(=O)O)CC[C@]3(C)C(CCC4[C@@]5(C)CC[C@H](OC(=O)CC(C)(C)C(=O)O)C(C)(C)C5CC[C@]43C)C12` (some centres unmarked) [Compound 54] was tested. Which EC50 did it give?
A: Its EC50 is no more than 100 nM.

Q: How did the EC50 turn out when `C=C(C)[C@@H]1CC[C@]2(C#Cc3ccccc3C(=O)NS(C)(=O)=O)CC[C@]3(C)C(CCC4[C@@]5(C)CC[C@H](OC(=O)CC(C)(C)C(=O)O)C(C)(C)C5CC[C@]43C)C12` (some centres unmarked) [Compound 55] was run?
A: Its EC50 is no more than 100 nM.

From patent US20100240630A1, “COMPOUNDS AND THERAPEUTIC USES THEREOF” (Myriad Pharmaceuticals, Inc.., priority 2007, published 2010)
